Key:
[1] = test system: antibodies in sera from SARS patients (sera 1a, 1b, 2, 6, 37, 62, London, SARS-yellow, SARS-green); assay type: binding, human; design: Binding of serum 6 to linear peptides of protein X1 of SARS-CoV Urbani / Binding of serum 37 to linear peptides of protein X1 of SARS-CoV Urbani / Binding of serum 6 to looped/cyclic peptide (PEPSCAN-ELISA) / Binding of serum 37 to looped/cyclic peptide (PEPSCAN-ELISA) / Binding of serum 37 to looped/cyclic peptides of protein X1 of SARS-CoV Urbani / Binding of serum 6 to linear peptides of protein X2 / Binding of serum 37 to linear peptides of protein X2 / Binding of serum 37 to looped/cyclic peptides of protein X2 of SARS-CoV Urbani / Binding of serum 6 to linear peptides of protein M of SARS-CoV Urbani / Binding of serum 37 to linear peptides of protein M of SARS-CoV Urbani / Binding of serum 6 to looped/cyclic peptides of protein M of SARS-CoV Urbani / Binding of serum 37 to looped/cyclic peptides of protein M of SARS-CoV Urbani / Binding of serum 6 to linear peptides of protein X3 of SARS-CoV Urbani / Binding of serum 37 to linear peptides of protein X3 of SARS-CoV Urbani / Binding of serum 37 to looped/cyclic peptides of protein X3 of SARS-CoV Urbani / Binding of serum 6 to linear peptides of protein X4 of SARS-CoV Urbani / Binding of serum 37 to linear peptides of protein X4 of SARS-CoV Urbani / Binding of serum 37 to looped/cyclic peptides of protein X4 of SARS-CoV Urbani / Binding of serum 6 to linear peptides of protein X5 of SARS-CoV Urbani / Binding of serum 37 to linear peptides of protein X5 of SARS-CoV Urbani / Binding of serum 37 to looped/cyclic peptides of protein X5 of SARS-CoV Urbani / Binding of serum 6 to linear peptides of protein N of SARS-CoV Urbani / Binding of serum 37 to linear peptides of protein N of SARS-CoV Urbani / Binding of serum 6 to linear peptide (PEPSCAN-ELISA) / Binding of serum 1a to looped/cyclic peptides of protein N of SARS-CoV Urbani / Binding of serum 1b to looped/cyclic peptides of protein N of SARS-CoV Urbani / Binding of serum 2 to looped/cyclic peptides of protein N of SARS-CoV Urbani / Binding of serum 6 to looped/cyclic peptides of protein N of SARS-CoV Urbani / Binding of serum 37 to looped/cyclic peptides of protein N of SARS-CoV Urbani / Binding of serum 62 to looped/cyclic peptides of protein N of SARS-CoV Urbani / Binding of serum London to looped/cyclic peptides of protein N of SARS-CoV Urbani / Binding of serum SARS-green to looped/cyclic peptides of protein N of SARS-CoV Urbani: unit not given here
[2] = test system: control sera (pooled serum of ten healthy LUMC hospital workers; commercial negative donor pooled serum from the Dutch bloodbank); assay type: binding, human; design: Binding of Control serum LUMC to linear peptides / Binding of Control serum Blood-bank to linear peptides / Binding of Control serum LUMC to looped peptides / Binding of Control Serum Blood-Bank to Looped peptides / Binding of Control serum LUMC to linear peptides of the protein M of SARS-CoV Urbani / Binding of Control serum Blood-bank to linear peptides of the protein M of SARS-CoV Urbani / Binding of Control serum LUMC to looped peptides of the protein M of SARS-CoV Urbani / Binding of Control Serum Blood-Bank to Looped peptides of the protein M of SARS-CoV Urbani: unit not given here
[3] = test system: rabbit serum obtained by immunizing a rabbit with the SARS-CoV strain Frankfurt 1; assay type: binding; design: Binding of a rabbit serum to linear peptides / Binding of a rabbit serum to looped peptides / Rabbit serum linear peptides / Rabbit serum looped peptides / Binding of a rabbit serum to linear peptides of protein N of SARS-CoV Urbani (Rabbit serum linear peptides) / Binding of a rabbit serum to looped/cyclic peptides of protein N of SARS-CoV Urbani (Rabbit serum looped peptides): unit not given here
[4] = test system: recombinant human anti-SARS-CoV antibody 03-018; assay type: binding; design: Binding of antibody 03-018 to linear peptides of the N protein of SARS-CoV Urbani / Binding of antibody 03-018 to looped/cyclic peptides of the N protein of SARS-CoV Urbani: unit not given here

Sequence: KEGIVWVATEGALNT
- Binding of serum 1a to linear peptides of protein N of SARS-CoV Urbani [1]: 0.2
- Binding of serum 1a to looped/cyclic peptides of protein N of SARS-CoV Urbani [1]: 0.3
- Binding of serum 1b to linear peptides of protein N of SARS-CoV Urbani [1]: 0.1
- Binding of serum 1b to looped/cyclic peptides of protein N of SARS-CoV Urbani [1]: 0.2
- Binding of serum 2 to linear peptides of protein N of SARS-CoV Urbani [1]: 0.2
- Binding of serum 2 to looped/cyclic peptides of protein N of SARS-CoV Urbani [1]: 0.4
- Binding of serum 6 to linear peptides of protein N of SARS-CoV Urbani [1]: 0.2
- Binding of serum 6 to looped/cyclic peptides of protein N of SARS-CoV Urbani [1]: 0.2
- Binding of serum 37 to linear peptides of protein N of SARS-CoV Urbani [1]: 0.7
- Binding of serum 37 to looped/cyclic peptides of protein N of SARS-CoV Urbani [1]: 0.6
- Binding of serum 62 to linear peptides of protein N of SARS-CoV Urbani [1]: 0.6
- Binding of serum 62 to looped/cyclic peptides of protein N of SARS-CoV Urbani [1]: 0.5
- Binding of serum London to linear peptides of protein N of SARS-CoV Urbani [1]: 0.4
- Binding of serum London to looped/cyclic peptides of protein N of SARS-CoV Urbani [1]: 0.4
- Binding of serum SARS-green to linear peptides of protein N of SARS-CoV Urbani [1]: 0.5
- Binding of serum SARS-green to looped/cyclic peptides of protein N of SARS-CoV Urbani [1]: 0.3
- Binding of serum SARS-yellow to linear peptides of protein N of SARS-CoV Urbani [1]: 0.7
- Binding of serum SARS-yellow to looped/cyclic peptides of protein N of SARS-CoV Urbani [1]: 0.5
- Binding of Control Serum Blood-Bank to Looped peptides [2]: 0.6
- Binding of Control serum Blood-bank to linear peptides [2]: 0.7
- Binding of Control serum LUMC to linear peptides [2]: 0.6
- Binding of Control serum LUMC to looped peptides [2]: 0.7
- Binding of a rabbit serum to linear peptides of protein N of SARS-CoV Urbani (Rabbit serum linear peptides) [3]: 0.1
- Binding of a rabbit serum to looped/cyclic peptides of protein N of SARS-CoV Urbani (Rabbit serum looped peptides) [3]: 0.4
- Binding of antibody 03-018 to linear peptides of the N protein of SARS-CoV Urbani [4]: 0.1
- Binding of antibody 03-018 to looped/cyclic peptides of the N protein of SARS-CoV Urbani [4]: 0.2

Sequence: YRRATRRVRGGDGKM
- Binding of serum 1a to linear peptides of protein N of SARS-CoV Urbani [1]: 0.3
- Binding of serum 1a to looped/cyclic peptides of protein N of SARS-CoV Urbani [1]: 0.2
- Binding of serum 1b to linear peptides of protein N of SARS-CoV Urbani [1]: 0.1
- Binding of serum 1b to looped/cyclic peptides of protein N of SARS-CoV Urbani [1]: 0.1
- Binding of serum 2 to linear peptides of protein N of SARS-CoV Urbani [1]: 0.3
- Binding of serum 2 to looped/cyclic peptides of protein N of SARS-CoV Urbani [1]: 0.2
- Binding of serum 6 to linear peptides of protein N of SARS-CoV Urbani [1]: 0.3
- Binding of serum 6 to looped/cyclic peptides of protein N of SARS-CoV Urbani [1]: 0.1
- Binding of serum 37 to linear peptides of protein N of SARS-CoV Urbani [1]: 0.8
- Binding of serum 37 to looped/cyclic peptides of protein N of SARS-CoV Urbani [1]: 0.4
- Binding of serum 62 to linear peptides of protein N of SARS-CoV Urbani [1]: 0.7
- Binding of serum 62 to looped/cyclic peptides of protein N of SARS-CoV Urbani [1]: 0.3
- Binding of serum London to linear peptides of protein N of SARS-CoV Urbani [1]: 0.5
- Binding of serum London to looped/cyclic peptides of protein N of SARS-CoV Urbani [1]: 0.3
- Binding of serum SARS-green to linear peptides of protein N of SARS-CoV Urbani [1]: 0.4
- Binding of serum SARS-green to looped/cyclic peptides of protein N of SARS-CoV Urbani [1]: 0.2
- Binding of serum SARS-yellow to linear peptides of protein N of SARS-CoV Urbani [1]: 0.6
- Binding of serum SARS-yellow to looped/cyclic peptides of protein N of SARS-CoV Urbani [1]: 0.1
- Binding of Control Serum Blood-Bank to Looped peptides [2]: 0.4
- Binding of Control serum Blood-bank to linear peptides [2]: 0.8
- Binding of Control serum LUMC to linear peptides [2]: 0.7
- Binding of Control serum LUMC to looped peptides [2]: 0.3
- Binding of a rabbit serum to linear peptides of protein N of SARS-CoV Urbani (Rabbit serum linear peptides) [3]: 0.2
- Binding of a rabbit serum to looped/cyclic peptides of protein N of SARS-CoV Urbani (Rabbit serum looped peptides) [3]: 0.0
- Binding of antibody 03-018 to linear peptides of the N protein of SARS-CoV Urbani [4]: 0.1
- Binding of antibody 03-018 to looped/cyclic peptides of the N protein of SARS-CoV Urbani [4]: 0.2

Sequence: QAFGRRGPEQTQGNF
- Binding of serum 1a to linear peptide (PEPSCAN-ELISA) [1]: 0.3
- Binding of serum 1a to looped/cyclic peptides of protein N of SARS-CoV Urbani [1]: 0.3
- Binding of serum 1b to linear peptide (PEPSCAN-ELISA) [1]: 0.1
- Binding of serum 1b to looped/cyclic peptides of protein N of SARS-CoV Urbani [1]: 0.2
- Binding of serum 2 to linear peptide (PEPSCAN-ELISA) [1]: 0.2
- Binding of serum 2 to looped/cyclic peptides of protein N of SARS-CoV Urbani [1]: 0.3
- Binding of serum 6 to linear peptide (PEPSCAN-ELISA) [1]: 0.2
- Binding of serum 6 to looped/cyclic peptides of protein N of SARS-CoV Urbani [1]: 0.2
- Binding of serum 37 to linear peptide (PEPSCAN-ELISA) [1]: 0.6
- Binding of serum 37 to looped/cyclic peptides of protein N of SARS-CoV Urbani [1]: 0.3
- Binding of serum 62 to linear peptide (PEPSCAN-ELISA) [1]: 0.8
- Binding of serum 62 to looped/cyclic peptides of protein N of SARS-CoV Urbani [1]: 0.3
- Binding of serum London to linear peptide (PEPSCAN-ELISA) [1]: 0.7
- Binding of serum London to looped/cyclic peptides of protein N of SARS-CoV Urbani [1]: 0.3
- Binding of serum SARS-green to linear peptide (PEPSCAN-ELISA) [1]: 0.2
- Binding of serum SARS-green to looped/cyclic peptides of protein N of SARS-CoV Urbani [1]: 0.2
- Binding of serum SARS-yellow to linear peptide (PEPSCAN-ELISA) [1]: 0.4
- Binding of serum SARS-yellow to looped/cyclic peptides of protein N of SARS-CoV Urbani [1]: 0.2
- Binding of Control Serum Blood-Bank to Looped peptides [2]: 0.4
- Binding of Control serum Blood-bank to linear peptides [2]: 0.9
- Binding of Control serum LUMC to linear peptides [2]: 0.7
- Binding of Control serum LUMC to looped peptides [2]: 0.4
- Binding of a rabbit serum to linear peptides of protein N of SARS-CoV Urbani (Rabbit serum linear peptides) [3]: 0.1
- Binding of a rabbit serum to looped/cyclic peptides of protein N of SARS-CoV Urbani (Rabbit serum looped peptides) [3]: 0.3
- Binding of antibody 03-018 to linear peptides of the N protein of SARS-CoV Urbani [4]: 0.1
- Binding of antibody 03-018 to looped/cyclic peptides of the N protein of SARS-CoV Urbani [4]: 0.2

Sequence: ALNTPKDHIGTRNPN
- Binding of serum 1a to linear peptides of protein N of SARS-CoV Urbani [1]: 0.3
- Binding of serum 1a to looped/cyclic peptides of protein N of SARS-CoV Urbani [1]: 0.4
- Binding of serum 1b to linear peptides of protein N of SARS-CoV Urbani [1]: 0.1
- Binding of serum 1b to looped/cyclic peptides of protein N of SARS-CoV Urbani [1]: 0.3
- Binding of serum 2 to linear peptides of protein N of SARS-CoV Urbani [1]: 0.3
- Binding of serum 2 to looped/cyclic peptides of protein N of SARS-CoV Urbani [1]: 0.5
- Binding of serum 6 to linear peptides of protein N of SARS-CoV Urbani [1]: 0.2
- Binding of serum 6 to looped/cyclic peptides of protein N of SARS-CoV Urbani [1]: 0.3
- Binding of serum 37 to linear peptides of protein N of SARS-CoV Urbani [1]: 0.7
- Binding of serum 37 to looped/cyclic peptides of protein N of SARS-CoV Urbani [1]: 0.5
- Binding of serum 62 to linear peptides of protein N of SARS-CoV Urbani [1]: 0.6
- Binding of serum 62 to looped/cyclic peptides of protein N of SARS-CoV Urbani [1]: 0.5
- Binding of serum London to linear peptides of protein N of SARS-CoV Urbani [1]: 0.5
- Binding of serum London to looped/cyclic peptides of protein N of SARS-CoV Urbani [1]: 0.3
- Binding of serum SARS-green to linear peptides of protein N of SARS-CoV Urbani [1]: 0.4
- Binding of serum SARS-green to looped/cyclic peptides of protein N of SARS-CoV Urbani [1]: 0.5
- Binding of serum SARS-yellow to linear peptides of protein N of SARS-CoV Urbani [1]: 0.5
- Binding of serum SARS-yellow to looped/cyclic peptides of protein N of SARS-CoV Urbani [1]: 0.0
- Binding of Control Serum Blood-Bank to Looped peptides [2]: 0.5
- Binding of Control serum Blood-bank to linear peptides [2]: 0.8
- Binding of Control serum LUMC to linear peptides [2]: 0.6
- Binding of Control serum LUMC to looped peptides [2]: 0.4
- Binding of a rabbit serum to linear peptides of protein N of SARS-CoV Urbani (Rabbit serum linear peptides) [3]: 0.2
- Binding of a rabbit serum to looped/cyclic peptides of protein N of SARS-CoV Urbani (Rabbit serum looped peptides) [3]: 0.2
- Binding of antibody 03-018 to linear peptides of the N protein of SARS-CoV Urbani [4]: 0.1
- Binding of antibody 03-018 to looped/cyclic peptides of the N protein of SARS-CoV Urbani [4]: 0.2

— US20070128217A1 (priority 2003, published 2007)
